The numbers were not newly measured in paper PMC12525602, “Identification of Selective α-Glucosidase Inhibitors via Virtual Screening with Machine Learning” (Molecules, 2025), which cites them from elsewhere.

One data set deals with α-glucosidase. To be noted: 300-compound dataset of reported inhibitors and ineffective compounds, Table S4; cited from earlier work.
Take `C[C@@H]1O[C@@H](Oc2cc(O)c3c(=O)c(O[C@@H]4O[C@@H](C)[C@H](O)[C@@H](O)[C@H]4O)c(-c4ccc(O)cc4)oc3c2)[C@H](O)[C@H](O)[C@H]1O` [compound 0, C[C@H]1[C@H](O)[C@@H](O)[C@@H](O)[C@H](OC2=CC(O)=C3C(OC(C4=CC=C(O)C=C4)=C(O[C@H]5[C@H](O)[C@H](O)[C@@H](O)[C@H](C)O5)C3=O)=C2)O1]: the “activity (label in modeling dataset)” value is recorded as 0.

The data set is the same for the next values; noted with them: Table S5 modeling dataset; activity label 1 = active, 0 = inactive; cited from earlier work.
Turning to `CC1CCN(c2ccc(/C=N/Nc3nc(-c4ccccc4)cs3)cc2)CC1` [compound 112], the activity is listed as 0. As to `N#Cc1ccc2[nH]c(-c3nnc(Nc4cccc(F)c4)s3)cc2c1` [compound 124], the activity is recorded as 0. With `N#Cc1c(-c2ccc(Cl)cc2)cc(-c2cccnc2)c(C#N)c1N` [compound 97], the activity is listed as 0. As for `c1ccc(CSc2nnc(COc3cccc4cccnc34)o2)cc1` [compound 116], the activity is 0.

Consider `CC1CCCN(c2ccc(/C=N/Nc3nc(-c4ccc(O)c(O)c4)cs3)cc2)C1` (centres unmarked) [compound 93], for which the activity is listed as 0. With `N#Cc1ccc(S(=O)(=O)NNC(=O)c2cc3cc(F)ccc3[nH]2)cc1` [compound 122], the activity is 0. With `COc1cccc(C(=O)C2C(O)c3ccccc3S(=O)(=O)N2CC(=O)Nc2cccc(Br)c2)c1` (centres unmarked) [compound 118], the activity is 0. On to `C[C@@H]1O[C@@H](Oc2c(-c3ccc(O)cc3)oc3cc(O)cc(O)c3c2=O)[C@H](O)[C@H](O)[C@H]1O` [compound 117], for which the activity is on record as 0. For the compound `O=C(c1ccccc1)c1ccc2nc(-c3ccc(O)cc3)[nH]c2c1` [compound 135], the activity is recorded as 0.

The same data set, now with this note: activity label in the 300-compound modeling dataset (Table S5); 1 = active, 0 = inactive; cited from earlier work.
Regarding `O=C(CCc1ccc(O)cc1)c1c(O)cc(O)cc1O[C@@H]1O[C@H](CO)[C@@H](O)[C@H](O)[C@H]1O` [compound 192], the activity is reported as 1.

Take `Cc1ccc(-c2cc(C(F)(F)F)nn2-c2ccc(S(=O)(=O)NC(=O)c3ccccc3)cc2)cc1` [compound 197]: the activity is reported as 1. On to `O=C(NNS(=O)(=O)c1ccc(F)cc1)c1cc2cc(F)ccc2[nH]1` [compound 207], for which the activity is given as 1. Turning to `O=C(COc1c(I)cc(Cl)c2cccnc12)c1ccccc1` [compound 214], the activity is listed as 1.

`Oc1c(Cl)cc(Cl)cc1-c1nnc(/N=C(/CSc2nnc3c(n2)[nH]c2ccccc23)c2ccc(-c3ccccc3)cc2)s1` [compound 221]: the activity is recorded as 1. Regarding `COc1ccc([C@@H]2CC(=O)c3c(O)cc(O[C@@H]4O[C@H](CO[C@@H]5O[C@@H](C)[C@H](O)[C@@H](O)[C@H]5O)[C@@H](O)[C@H](O)[C@H]4O)cc3O2)cc1O` [compound 185], the activity was 1.

The same data set, now with this note: activity label of the 300-compound modeling dataset, Table S5; cited from earlier work.
In the case of `COc1cc(-c2nc3ccccc3[nH]2)ccc1OCC(=O)Nc1ccc(F)cc1` [compound 261], the activity was 1.

Take `O=C(COc1c(I)cc(Cl)c2cccnc12)c1ccc(Cl)cc1` [compound 241]: the activity is given as 1. As for `Cc1ccc(/C(CSc2nnc3c(n2)[nH]c2ccccc23)=N\c2nnc(-c3ccc(Cl)c(Cl)c3)s2)cc1` [compound 277], the activity is recorded as 1. In the case of `COC(=O)Cn1c(=O)oc2c(C(=O)/C=C/c3cc(F)c(O)c(F)c3)cccc21` [compound 264], the activity was 1. Regarding `Brc1ccc(CNc2cccc(-c3nc4ccccc4[nH]3)c2)cc1` [compound 275], the activity is recorded as 1. With `O=C1Nc2ccccc2/C1=N/N=C/c1ccc(OCc2cn(Cc3ccccc3)nn2)cc1` [compound 259], the activity is on record as 1. Consider `Oc1cccc(-c2nnc(/N=C(/CSc3nnc4c(n3)[nH]c3ccccc34)c3ccc(-c4ccccc4)cc3)s2)c1` [compound 269], for which the activity is listed as 1. In the case of `Brc1cccc(CNc2cccc(-c3nc4ccccc4[nH]3)c2)n1` [compound 265], the activity is 1. Regarding `Cn1ccnc1SC(=O)c1ccc(-c2ccccc2F)o1` [compound 272], the activity is on record as 1.

Consider `Cc1cc(C)cc(Cn2cc(COc3ccc(-c4nc(-c5ccccc5)c(-c5ccccc5)[nH]4)cc3)nn2)c1` [compound 267], for which the activity is reported as 1. In the case of `c1ccc(-c2cnc3ccccc3n2)cc1` [compound 278], the activity is 1. Take `Cc1ccc(/C(CSc2nnc3c(n2)[nH]c2ccccc23)=N\c2nnc(-c3ccc([N+](=O)[O-])cc3)s2)cc1` [compound 239]: the activity is 1. Take `Clc1ncccc1CNc1cccc(-c2nc3ccccc3[nH]2)c1` [compound 237]: the activity is 1.

The data set is the same for the next values; noted with them: activity label of the modeling dataset (Table S5), α-glucosidase; 1 = active, 0 = inactive; cited from earlier work.
Turning to `C[C@@H]1O[C@@H](Oc2cc(O)c3c(=O)c(O[C@@H]4O[C@@H](C)[C@H](O)[C@@H](O)[C@H]4O)c(-c4ccc(O)cc4)oc3c2)[C@H](O)[C@H](O)[C@H]1O` [compound 0, C[C@H]1[C@H](O)[C@@H](O)[C@@H](O)[C@H](OC2=CC(O)=C3C(OC(C4=CC=C(O)C=C4)=C(O[C@H]5[C@H](O)[C@H](O)[C@@H](O)[C@H](C)O5)C3=O)=C2)O1], the activity is recorded as 0. Take `Cc1ccc(-c2cc(-c3cccnc3)c(C#N)c(N)c2C#N)cc1` [compound 6]: the activity was 0.

For `Cc1ccc(-c2cc(-c3ccncc3)c(C#N)c(N)c2C#N)cc1` [compound 35], the activity was 0. `Cc1ccccc1Nc1nnc(-c2cc3cc(C#N)ccc3[nH]2)s1` [compound 14]: the activity was 0. Take `O=c1c(O[C@@H]2O[C@H](CO)[C@@H](O)[C@H](O)[C@H]2O)c(-c2ccc(O)cc2)oc2cc(O)cc(O)c12` [compound 41]: the activity was 0. For `CCCCCCCCCCCCCCCCCC(N)=O` [compound 27], the activity is on record as 0. Take `Fc1ccc(Cn2cc(CSc3nnc(COc4cccc5cccnc45)o3)nn2)cc1F` [compound 29]: the activity is reported as 0. In the case of `N#Cc1c(-c2cccnc2)cc(-c2ccco2)c(C#N)c1N` [compound 19], the activity is on record as 0. For `N#Cc1c(-c2ccc(-c3ccccc3)cc2)cc(-c2ccc([N+](=O)[O-])cc2)c(C#N)c1N` [compound 10], the activity is recorded as 0.

The data set is the same for the next values; noted with them: activity label of the modeling dataset, Table S5 (1 = active, 0 = inactive); cited from earlier work.
Regarding `CC(C)CCC(=O)C1(O)C(O)=C(C(=O)CC(C)C)C(=O)C1CCC(C)C` (centres unmarked) [compound 66], the activity is 0. Regarding `CC1CCCN(c2ccc(/C=N/Nc3nc(-c4ccc(F)cc4)cs3)cc2)C1` (centres unmarked) [compound 87], the activity is 0. In the case of `CC1CCN(c2ccc(/C=N/Nc3nc(-c4ccc(O)c(O)c4)cs3)cc2)CC1` [compound 79], the activity is given as 0. As to `CC(C)=CCSc1nnc(COc2cccc3cccnc23)o1` [compound 86], the activity is given as 0. For the compound `Clc1ccc(Cn2cc(CSc3nnc(COc4cccc5cccnc45)o3)nn2)c(Cl)c1` [compound 61], the activity is recorded as 0. With `Cc1ccc(-n2cc(CSc3nnc(COc4cccc5cccnc45)o3)nn2)cc1` [compound 59], the activity is 0. Take `N#Cc1c(-c2ccc([N+](=O)[O-])cc2)cc(-c2cccc(Br)c2)c(C#N)c1N` [compound 48]: the activity is given as 0. With `CCCCCCCCCCCCN` [compound 44], the activity is 0. Take `CC1CCCN(c2ccc(/C=N/Nc3nc(-c4ccc(F)cc4F)cs3)cc2)C1` (centres unmarked) [compound 78]: the activity is reported as 0. With `CC1CCN(c2ccc(/C=N/Nc3nc(-c4ccc([N+](=O)[O-])cc4)cs3)cc2)CC1` [compound 67], the activity is recorded as 0.

Still in this data set, the particulars now being: activity label of the modeling dataset, Table S5; cited from earlier work.
With `O=C(CCc1ccc(O)cc1)c1c(O)cc(O)cc1O` [compound 176], the activity is 1.

Turning to `COc1ccc(Br)cc1-c1nnc(/N=C(/CSc2nnc3c(n2)[nH]c2ccccc23)c2cccc([N+](=O)[O-])c2)s1` [compound 164], the activity was 1. On to `CC(C)=CCc1c(O)cc2c(c1O)C(=O)CC(c1ccc(O)cc1)O2` (centres unmarked) [compound 169], for which the activity is reported as 1.

Take `CC1CCCN(c2ccc(/C=N/Nc3nc(-c4ccc(O)cc4)cs3)cc2)C1` (centres unmarked) [compound 140]: the activity is listed as 0.

For the compound `N#Cc1ccc2[nH]c(-c3nnc(Nc4ccc(F)cc4)s3)cc2c1` [compound 170], the activity is recorded as 1. With `O=C(NNS(=O)(=O)c1ccc(C(F)(F)F)cc1)c1cc2cc(F)ccc2[nH]1` [compound 150], the activity is 1. On to `COc1cc(/C=C/C(=O)O)ccc1O` [compound 183], for which the activity was 1. `COc1cccc(C(=O)C2C(O)c3ccccc3S(=O)(=O)N2CC(=O)Nc2ccc(Cl)cc2)c1` (centres unmarked) [compound 178]: the activity is on record as 1. In the case of `COc1cc(Br)ccc1-c1nnc(/N=C(/CSc2nnc3c(n2)[nH]c2ccccc23)c2ccc(Br)cc2Br)s1` [compound 151], the activity is 1. On to `COc1cccc(C(=O)C2=C(O)c3ccccc3S(=O)(=O)C2CC(=O)Nc2ccc(Cl)cc2)c1` (centres unmarked) [compound 177], for which the activity is on record as 1. On to `O=c1c(O[C@@H]2O[C@H](CO)[C@@H](O)[C@H](O)[C@H]2O)c(-c2ccc(O)c(O)c2)oc2cc(O)cc(O)c12` [compound 159], for which the activity was 1. Regarding `COc1cccc(C(=O)C2C(O)c3ccccc3S(=O)(=O)N2CC(=O)Nc2ccccc2Cl)c1` (centres unmarked) [compound 168], the activity is on record as 1. `COc1cc(/C=N/N=C2\C(=O)Nc3ccccc32)ccc1OCc1cn(Cc2ccccc2F)nn1` [compound 143]: the activity is recorded as 0.

In the case of `Cc1ccc(Cn2cc(COc3ccc(/C=N/N=C4\C(=O)N(c5ccc(Br)cc5)c5ccccc54)cc3)nn2)cc1` [compound 147], the activity was 0. `COc1cc(O)c(CC=C(C)C)c2c1C(=O)CC(c1ccc(O)cc1)O2` (centres unmarked) [compound 179]: the activity was 1. Consider `O=C(CCc1ccc(O)cc1)c1c(O)cc(O[C@@H]2O[C@H](CO)[C@@H](O)[C@H](O)[C@H]2O)cc1O` [compound 155], for which the activity was 1. Consider `O=C1/C(=N\N=C\c2ccc(OCc3cn(Cc4ccccc4F)nn3)cc2)c2ccccc2N1c1ccc(Br)cc1` [compound 148], for which the activity is given as 0.

Staying with this data set, now noted: activity label of the modeling dataset, sheet Table S5; 1 = active, 0 = inactive; cited from earlier work.
Turning to `CCOC(=O)c1cc(-c2ccc(Br)cc2)n2nc3ccccc3c2n1` [compound 296], the activity is reported as 1. For `Clc1ccc(-c2cnc3ccccc3n2)c(Cl)c1` [compound 283], the activity was 1. In the case of `CC(C)=CCn1c(=O)oc2c(C(=O)/C=C/c3cc(F)c(O)c(F)c3)cccc21` [compound 280], the activity is on record as 1.
